Experiment [1] deals with crude protein extract from whole male and female bugs. Nature of the experiment: Enzyme activity in crude protein extract from whole bugs. Conditions: supernatant of homogenized male and female bugs incubated with (E,E)-FPP. Type of experiment: biochemical, N. viridula. On the procedure:
Enzyme Activity in Crude Protein Assay. Enzyme activity was measured in crude protein extract from whole male and female bugs to determine possible products from enzymes that accept (E,E)-FPP. The supernatant from homogenized bugs was incubated with the substrate and analyzed products extracted by hexane using GC-MS. […] Also, several sesquiterpenes were found in low abundance that were not found in assays of partially purified NvTPS.

Experiment [2] has as its target T1, recombinant NvIDS1 (NvTPS) protein (Nezara viridula, UniProt A0A386JV86).
T1 construct: Full-length NvTPS (NvIDS1) cDNA was cloned into the pEXP5-NT/TOPO (Invitrogen) expression vector; His tag (N-terminal histidine fusion tag from pEXP5-NT/TOPO) (N); made in house; host or cells: E. coli BL21(DE3)pLysS
T1 sequence (A0A386JV86 1-378): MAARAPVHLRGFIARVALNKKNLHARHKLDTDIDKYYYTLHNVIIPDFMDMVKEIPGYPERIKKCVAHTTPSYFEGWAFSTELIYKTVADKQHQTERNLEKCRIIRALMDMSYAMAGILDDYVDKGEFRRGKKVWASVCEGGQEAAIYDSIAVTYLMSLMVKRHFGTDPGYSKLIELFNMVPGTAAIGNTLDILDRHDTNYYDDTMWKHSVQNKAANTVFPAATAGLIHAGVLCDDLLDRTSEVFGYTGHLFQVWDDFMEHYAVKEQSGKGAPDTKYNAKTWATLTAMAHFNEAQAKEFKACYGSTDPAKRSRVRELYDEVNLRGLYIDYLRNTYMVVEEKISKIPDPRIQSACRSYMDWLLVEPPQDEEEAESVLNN
The experiment is described as follows: TPS activity assay of purified recombinant NvTPS, products by GC-MS. The class given is biochemical, N. viridula. Particulars: 50 μM allylic substrate, 30° C., 1 h. On the procedure: Heterologous Expression of Recombinant NvTPS.
TPS activity of purified, recombinant NvTPS protein was determined in assay buffer (see above) with 1 mM DTT and 50 μM allylic substrate [(E,E)-, (Z,E)- or (Z,Z)-FPP] in a total volume of 100 μl and with a100 μl hexane overlay. Upon incubation at 30° C. for 1 h, assays were stopped on ice and compounds extracted by mixing using a vortex at maximum speed for 15 s. Phases were separated by centrifuging at 4000×g for 10 min and the hexane phase was removed and dried over MgSO4. One μL of the hexane extract was analyzed by GC-MS.
Gas Chromatography-Mass Spectrometry Analysis and Determination of Absolute Configuration of NvTPS Products. GC-MS analysis of hexane extracts from assays with crude protein lysates or NvTPS recombinant protein was performed using split injection (5:1 ratio) at an injection temperature of 240° C. Compounds were separated on a GC-2010 gas chromatograph (Shimadzu, Kyoto, Japan) with a 30 m×0.25 mm i.d.×0.25 μm film Zebron ZB-XLB column (Phenomenex, Torrance, CA) coupled to a QP2010S mass spectrometer (Shimadzu). Separation steps were as follows: initial 2 min hold at 40° C., followed by a 5° C./min ramp to 220° C., then a 70° C./min ramp to 240° C. followed by a 2 min hold time at 240° C. Mass spectrometry was performed with a 240° C. ion source temperature, 280° C. interface temperature, electron ionization (El) potential of 70 eV, and scan range of 50 to 400 amu. Helium was used as a carrier gas at 1.9 ml/min.

The target of another experiment is T2, NvTPS (Nezara viridula, UniProt A0A386JV86).
T2 construct: Full-length NvTPS (NvIDS1) cDNA was cloned into the pEXP5-NT/TOPO (Invitrogen) expression vector; His tag (N-terminal histidine fusion tag from pEXP5-NT/TOPO) (N); made in house; host or cells: E. coli BL21(DE3)pLysS
T2 sequence (A0A386JV86 1-378): T1 sequence (A0A386JV86 1-378)
Nature of the experiment: Kinetic analysis of NvTPS with [1-3H]-(E,E)-FPP. Type of experiment: biochemical, N. viridula. Conditions: (E,E)-FPP as the substrate. Here is the method:
To determine the apparent Km value of NvTPS for (E,E)-FPP, […] of recombinant protein was incubated with increasing concentrations of [1-3H]-(E,E)-FPP (64 ρCi mmol-1) in a total volume of […]. Assays were incubated at 30° C. for 5 min prior to extraction of the enzyme product with 250 μl hexane. Assays were performed in triplicate. Quantification of the radioactive product was as described by Tholl et al. (2005. Plant. J. 42:757-771). The Km value was calculated by rectangular hyperbolic regression analysis using Hyperbolic Regression Analysis software (HYPER 1.01) (J. S. Easterby, University of Liverpool).

For experiment [3], the system named is crude protein extracts from tissue associated with the ventral sternites of N. viridula. Nature of the experiment: Terpene synthase activity in crude protein extracts of abdominal cuticle tissue. Type of experiment: biochemical. Particulars: 50 μM (E,E)-FPP, 12 h, 30° C. On the procedure: Crude Protein Extracts of N. viridula. Abdominal cuticles from one mature (14-15 days post molt) adult male and female N. viridula were used for crude protein assays. Insects were fixed with hexane vapor in a screw top jar and dissected in phosphate buffered saline (PBS) (137 mM NaCl, 8.1 mM Na2HPO4, 1.5 mM NaH2PO4, 2.7 mM KCl, pH 7.2). Head, thorax and abdominal soft tissues were removed except for epithelial cells lining the cuticle. Abdominal cuticles were then frozen in liquid nitrogen, pulverized with a mortar and pestle, and suspended in assay buffer (25 mM HEPES, 5 mM MgCl2, 10% glycerol, 1 mM DTT, pH 7). Protein concentrations were determined with a Bradford Assay (Bio-Rad, Hercules, CA) according to the manufacturer's protocol resulting in a protein concentration of 1.2 μg/μl and 0.8 μg/μl for female and male tissue, respectively.
TPS Activity Assay. To determine terpene synthase activity in crude protein extracts of male and female abdominal cuticle tissue, 50 μM (E,E)-FPP was added to protein extracts in assay buffer (see above) containing 50 µg protein at a final volume of 200 μl and with a 200 μl hexane overlay to collect volatiles. Following incubation for 12 h at 30° C., enzyme products were extracted by mixing for 15 s using a vortex and phases were separated by centrifuging at 4000×g for 10 min. One μl of the hexane extract was analyzed by GC-MS. […]

In another experiment the target is NvIDS1 (NvTPS) (Nezara viridula, UniProt A0A386JV86). Conditions: IPP and DMAPP as substrates.
Experiment [4] addresses recombinant NvIDS2 (NvFPPS) (Nezara viridula, UniProt A0A386JVA3). Conditions: 50 μM IPP and 50 μM DMAPP, 30° C., 2 h, LC-MS.
Procedure: In preparation for enzyme assays, a buffer exchange to 25 mM 3-(N-morpholino)-2-hydroxypropanesulfonic acid (MOPSO, pH 7.2, 10% [v/v] glycerol, 1 mM DTT, 5 mM MgCl2) was conducted on PD-10 Desalting Columns (GE Healthcare Life Sciences, Pittsburgh, PA).
IDS Activity Assay and Analysis. […] Upon incubation at 30° C. for 2 h, IDS enzyme products were analyzed on an Agilent 1260 HPLC system (Agilent Technologies) coupled to an API 5000 triple-quadrupole mass spectrometer (AB Sciex Instruments) following the protocol described by Beran et al. 2016.

Chain of recombinant NvIDS2 (NvFPPS) (A0A386JVA3 whole entry): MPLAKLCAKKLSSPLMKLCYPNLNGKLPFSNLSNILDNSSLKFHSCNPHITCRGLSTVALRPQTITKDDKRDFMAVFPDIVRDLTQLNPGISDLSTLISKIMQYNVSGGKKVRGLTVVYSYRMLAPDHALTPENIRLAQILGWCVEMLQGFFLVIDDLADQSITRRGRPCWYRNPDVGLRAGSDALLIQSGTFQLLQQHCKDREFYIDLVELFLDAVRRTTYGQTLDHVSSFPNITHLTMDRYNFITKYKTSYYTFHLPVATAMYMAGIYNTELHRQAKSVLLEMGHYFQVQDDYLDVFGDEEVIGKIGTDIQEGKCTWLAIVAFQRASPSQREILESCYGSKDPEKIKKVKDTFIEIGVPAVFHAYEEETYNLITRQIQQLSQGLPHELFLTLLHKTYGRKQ

By Km is commonly meant the substrate concentration at which the rate is half of its maximum. Turning to `CC(C)=CCC/C(C)=C/CC/C(C)=C/COP(=O)(O)OP(=O)(O)O` [(E,E)-FPP, (E,E)-farnesyl diphosphate], the “products in crude protein extract from whole bugs, GC-MS” value in experiment [1] was “(Z)-α-bisabolene present in crude protein from males but not females”. Moreover, in experiment [2], the “enzymatic products of NvIDS1 (TPS activity)” value (shortened to “enzymatic products of NvIDS1”) is on record as “(Z)-α-bisabolene as the main product”. For the same compound, the Vmax on NvTPS was 11.83±2.14 pkat/mg. In addition, the Km on NvTPS (30° C., 5 min, triplicate, read-out: apparent Km value) stood at 950 ± 370 nM. Besides, the “TPS activity in crude protein extract, products by GC-MS” value in experiment [3] (extracts from mature females) is on record as “only little activity”; in experiment [3] (extracts from mature males) it was “formation of (Z)-α-bisabolene”.
As to `CC(C)=CCC/C(C)=C/CC/C(C)=C\COP(=O)(O)OP(=O)(O)O` [(Z,E)-FPP], the “enzymatic products of NvIDS1” value in experiment [2] is “No enzymatic products were detected”.
As for `CC(C)=CCC/C(C)=C\CC/C(C)=C\COP(=O)(O)OP(=O)(O)O` [(Z,Z)-FPP], the “enzymatic products of NvIDS1” value in experiment [2] was “No enzymatic products were detected”.
With isopentenyl diphosphate [IPP], the “IDS activity of NvIDS1” value on NvIDS1 (NvTPS) was “no activity was observed”. The “IDS product of NvIDS2” value in experiment [4] is “(E,E)-FPP as the sole product”.

The values above are taken from patent US12180523B2, “Southern green stink bug pheromone synthesis enzymes and uses thereof” (VIRGINIA TECH INTELLECTUAL PROPERTIES, INC., priority 2018, dated 2024).
